Read-outs that look alike come from different tables or passages of the source. Marks after values point to notes of the source that are not given here.
Columns and labels:
[1] = test system: Influenza A/Aichi/2/68 virus; assay type: in vivo, BALB/c mice
GLUT4 = experiment: Insulin-induced translocation of GLUT4 to plasma membrane in skeletal muscle of diabetic GK rats; assay type: in vivo; settings: oral treatment for 9 weeks; insulin 0.5 U/kg i.p., 30 minutes; Western blot
From the text: Upper panel: Representative Western blot of plasma membrane GLUT4 in skeletal muscle of des-aspartate-angiotensin I treated and non treated diabetic GK rats. Lower panel: Relative (to the non insulin stimulated samples) levels of plasma membrane GLUT4 in skeletal muscle of des-aspartate-angiotensin I treated and control diabetic GK rats.
The diabetic GK rats described in EXAMPLE 9 were similarly treated for another week. At 9 weeks of treatment, animals were fasted overnight and half the animals in each group were intraperitoneally administered with PBS and the other half with insulin (0.5 U/kg). After 30 minutes, the animals were sacrificed by cervical dislocation. Hind limb skeletal muscles were rapidly excised and frozen in liquid nitrogen. Muscle samples were stored at −80° C. until used. The hindlimb muscles were subsequently thawed over an ice pack and plasma membranes were prepared as described by Dombrowaski et al. Thirty μg of protein from the 25% interface of the discontinued sucrose gradient was subjected to SDS-PAGE, transferred to PVDF sheets and incubated with anti-GLUT4 polyclonal primary antibody (1:800), washed and followed by incubation with anti-goat secondary antibody (1:10,000). The bands were detected at 49 kDa. […]

[2] = oral 1200 nmole/kg given as a single dose on Day 2 (n = 9), post infection day 11

Substance: des-aspartate-angiotensin I (RVYIHPFHL; Angiotensin-1; UniProt P01019 26-34, looked up, fragment) [endogenous angiotensin peptide derived from angiotensin I by a specific aminopeptidase; purchased from Bachem]
- Average Percentage Weight Change ([1]; oral 300 nmole/kg/day for 16 days (n = 5), post infection day 0 (taken as 100%)): 100%
- Average Percentage Weight Change ([1]; oral 300 nmole/kg/day for 16 days (n = 5), post infection day 1): 102.1 ± 1.5%
- Average Percentage Weight Change ([1]; oral 300 nmole/kg/day for 16 days (n = 5), post infection day 2): 96.2 ± 2.0%
- Average Percentage Weight Change ([1]; oral 300 nmole/kg/day for 16 days (n = 5), post infection day 3): 90.8 ± 2.4%
- Average Percentage Weight Change ([1]; oral 300 nmole/kg/day for 16 days (n = 5), post infection day 4): 85.8 ± 2.9%
- Average Percentage Weight Change ([1]; oral 300 nmole/kg/day for 16 days (n = 5), post infection day 5): 83.2 ± 3.4%
- number of animals that died on the day of recording ([1]; oral 300 nmole/kg/day for 16 days (n = 5), post infection day 6): 3
- Average Percentage Weight Change ([1]; oral 300 nmole/kg/day for 16 days (n = 5), post infection day 6, two surviving mice, no SEM): 94.1%
- Average Percentage Weight Change ([1]; oral 300 nmole/kg/day for 16 days (n = 5), post infection day 7, two surviving mice, no SEM): 95.7^# %
- Average Percentage Weight Change ([1]; oral 300 nmole/kg/day for 16 days (n = 5), post infection day 8, two surviving mice, no SEM): 97.9^# %
- Average Percentage Weight Change ([1]; oral 300 nmole/kg/day for 16 days (n = 5), post infection day 9, two surviving mice, no SEM): 98.7^# %
- Average Percentage Weight Change ([1]; oral 300 nmole/kg/day for 16 days (n = 5), post infection day 10, two surviving mice, no SEM): 98.1^# %
- Average Percentage Weight Change ([1]; oral 300 nmole/kg/day for 16 days (n = 5), post infection day 11, two surviving mice, no SEM): 97.4^# %
- Average Percentage Weight Change ([1]; oral 300 nmole/kg/day for 16 days (n = 5), post infection day 12, two surviving mice, no SEM): 96.9^# %
- Average Percentage Weight Change ([1]; oral 300 nmole/kg/day for 16 days (n = 5), post infection day 13, two surviving mice, no SEM): 96.8^# %
- Average Percentage Weight Change ([1]; oral 300 nmole/kg/day for 16 days (n = 5), post infection day 14, two surviving mice, no SEM): 98.2^# %
- Average Percentage Weight Change ([1]; oral 300 nmole/kg/day for 16 days (n = 5), post infection day 15, two surviving mice, no SEM): 99.6^# %
- Average Percentage Weight Change ([1]; oral 300 nmole/kg/day for 16 days (n = 5), post infection day 16, two surviving mice, no SEM): 102.4^# %
- antiviral activity (attenuation of weight loss, survival) ([1]; oral 600 nmole/kg administered daily for 8 days): Effective antiviral activity
- Average Percentage Weight Change ([1]; oral 600 nmole/kg/day for 16 days (n = 9), post infection day 0 (taken as 100%)): 100%
- Average Percentage Weight Change ([1]; oral 600 nmole/kg/day for 16 days (n = 9), post infection day 1): 98.7 ± 1.3%
- Average Percentage Weight Change ([1]; oral 600 nmole/kg/day for 16 days (n = 9), post infection day 2): 95.8 ± 1.4%
- Average Percentage Weight Change ([1]; oral 600 nmole/kg/day for 16 days (n = 9), post infection day 3): 92.0 ± 1.7%
- Average Percentage Weight Change ([1]; oral 600 nmole/kg/day for 16 days (n = 9), post infection day 4): 92.4 ± 1.8 %
- Average Percentage Weight Change ([1]; oral 600 nmole/kg/day for 16 days (n = 9), post infection day 5): 94.8 ± 1.8 %
- Average Percentage Weight Change ([1]; oral 600 nmole/kg/day for 16 days (n = 9), post infection day 6): 95.5 ± 2.1 %
- Average Percentage Weight Change ([1]; oral 600 nmole/kg/day for 16 days (n = 9), post infection day 7): 97.8 ± 2.6 %
- Average Percentage Weight Change ([1]; oral 600 nmole/kg/day for 16 days (n = 9), post infection day 8): 96.7 ± 2.9%
- Average Percentage Weight Change ([1]; oral 600 nmole/kg/day for 16 days (n = 9), post infection day 9): 96.3 ± 3.5%
- Average Percentage Weight Change ([1]; oral 600 nmole/kg/day for 16 days (n = 9), post infection day 10): 95.6 ± 4.0%
- Average Percentage Weight Change ([1]; oral 600 nmole/kg/day for 16 days (n = 9), post infection day 11): 95.4 ± 4.5%
- Average Percentage Weight Change ([1]; oral 600 nmole/kg/day for 16 days (n = 9), post infection day 12): 95.1 ± 5.0%
- Average Percentage Weight Change ([1]; oral 600 nmole/kg/day for 16 days (n = 9), post infection day 13): 95.5 ± 5.2%
- Average Percentage Weight Change ([1]; oral 600 nmole/kg/day for 16 days (n = 9), post infection day 14): 99.1 ± 3.4%
- Average Percentage Weight Change ([1]; oral 600 nmole/kg/day for 16 days (n = 9), post infection day 15): 100.3 ± 4.2%
- Average Percentage Weight Change ([1]; oral 600 nmole/kg/day for 16 days (n = 9), post infection day 16): 97.0 ± 4.8%
- Average Percentage Weight Change ([1]; oral 1200 nmole/kg given as a single dose on Day 2 (n = 9), post infection day 0 (taken as 100%)): 100%
- Average Percentage Weight Change ([1]; oral 1200 nmole/kg given as a single dose on Day 2 (n = 9), post infection day 1): 103.5 ± 0.5%
- Average Percentage Weight Change ([1]; oral 1200 nmole/kg given as a single dose on Day 2 (n = 9), post infection day 2): 96.8 ± 0.6%
- Average Percentage Weight Change ([1]; oral 1200 nmole/kg given as a single dose on Day 2 (n = 9), post infection day 3): 95.1 ± 0.8 %
- Average Percentage Weight Change ([1]; oral 1200 nmole/kg given as a single dose on Day 2 (n = 9), post infection day 4): 96.7 ± 1.2 %
- Average Percentage Weight Change ([1]; oral 1200 nmole/kg given as a single dose on Day 2 (n = 9), post infection day 5): 96.3 ± 2.1 %
- Average Percentage Weight Change ([1]; oral 1200 nmole/kg given as a single dose on Day 2 (n = 9), post infection day 6): 95.7 ± 3.1 %
- Average Percentage Weight Change ([1]; oral 1200 nmole/kg given as a single dose on Day 2 (n = 9), post infection day 7): 97.8 ± 4.0 %
- Average Percentage Weight Change ([1]; oral 1200 nmole/kg given as a single dose on Day 2 (n = 9), post infection day 8): 98.3 ± 4.3%
- Average Percentage Weight Change ([1]; oral 1200 nmole/kg given as a single dose on Day 2 (n = 9), post infection day 9): 101.1 ± 4.7%
- Average Percentage Weight Change ([1]; oral 1200 nmole/kg given as a single dose on Day 2 (n = 9), post infection day 10): 101.1 ± 4.8%
- Average Percentage Weight Change [1, 2]: 105.9 ± 1.3%
- number of animals that died on the day of recording [1, 2]: 1
- Average Percentage Weight Change ([1]; oral 1200 nmole/kg given as a single dose on Day 2 (n = 9), post infection day 12): 106.1 ± 1.3%
- Average Percentage Weight Change ([1]; oral 1200 nmole/kg given as a single dose on Day 2 (n = 9), post infection day 13): 108.1 ± 1.2%
- Average Percentage Weight Change ([1]; oral 1200 nmole/kg given as a single dose on Day 2 (n = 9), post infection day 14): 107.2 ± 1.3%
- Average Percentage Weight Change ([1]; oral 1200 nmole/kg given as a single dose on Day 2 (n = 9), post infection day 15): 109.4 ± 1.2%
- Average Percentage Weight Change ([1]; oral 1200 nmole/kg given as a single dose on Day 2 (n = 9), post infection day 16): 108.4 ± 1.5%
- antiviral activity (attenuation of weight loss, survival) ([1]; oral single dose of 1200 nmole/kg given on Day 2): Effective antiviral activity
- insulin-induced translocation of GLUT4 to the plasma membrane in skeletal muscle (GLUT4): significantly enhances

— patent publication US7981867B2, “Use of des-aspartate-angiotensin I” (priority 2005, dated 2011)
